Values quoted from earlier work in patent US5393873A, “Peptides with anticoagulant activity” (BASF Aktiengesellschaft, priority 1991, dated 1995).

Biological target: thrombin (Homo sapiens, UniProt P00734)

Val-Val-Tyr-Thr-Asp-Cys-Thr-Glu-Ser-Gly-Gln-Asn-Leu-Cys-Leu-Cys-Glu-Gly-Ser-Asn-Val-Cys-Gly-Gln-Gly-Asn-Lys-Cys-Ile-Leu-Gly-Ser-Asp-Gly-Glu-Lys-Asn-Gly-Cys-Val-Thr-Gly-Glu-Gly-Thr-Pro-Lys-Pro-Gln-Ser-His-Asn-Asp-Gly-Asp-Phe-Glu-Glu-Ile-Pro-Glu-Glu-Tyr(SO3 H)-Leu-Gln [Hirudin]
binding to thrombin: very strongly
